{"source": "ChEMBL document CHEMBL2169824", "about": "“The many faces of the adamantyl group in drug design” (Eur J Med Chem, 2011)", "key": {"[1]": {"experiment": "Volume of distribution in mouse", "assay_type": "ADME, organism-based", "details": "in vivo"}, "[2]": {"tested_on": "Mycobacterium tuberculosis", "experiment": "Antimicrobial activity against Mycobacterium tuberculosis H37Rv", "assay_type": "functional"}, "[3]": {"experiment": "Half life in plasma", "assay_type": "ADME, cell-free"}, "[4]": {"molecular_target": "Delta-type opioid receptor (Homo sapiens, UniProt P41143)", "sequence (P41143 whole entry)": "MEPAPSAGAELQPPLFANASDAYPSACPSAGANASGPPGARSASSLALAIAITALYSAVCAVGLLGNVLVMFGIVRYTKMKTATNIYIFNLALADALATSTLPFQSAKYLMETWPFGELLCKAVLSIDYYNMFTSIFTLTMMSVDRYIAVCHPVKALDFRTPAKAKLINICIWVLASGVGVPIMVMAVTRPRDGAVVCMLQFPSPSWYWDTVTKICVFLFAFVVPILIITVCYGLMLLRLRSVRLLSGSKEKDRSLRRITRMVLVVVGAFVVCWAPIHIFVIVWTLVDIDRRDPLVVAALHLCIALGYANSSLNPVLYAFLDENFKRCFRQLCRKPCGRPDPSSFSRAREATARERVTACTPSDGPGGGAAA", "experiment": "Antagonist activity at DOR", "assay_type": "functional"}, "Mu-type opioid receptor": {"molecular_target": "Mu-type opioid receptor (Homo sapiens, UniProt P35372)", "sequence (P35372 whole entry)": "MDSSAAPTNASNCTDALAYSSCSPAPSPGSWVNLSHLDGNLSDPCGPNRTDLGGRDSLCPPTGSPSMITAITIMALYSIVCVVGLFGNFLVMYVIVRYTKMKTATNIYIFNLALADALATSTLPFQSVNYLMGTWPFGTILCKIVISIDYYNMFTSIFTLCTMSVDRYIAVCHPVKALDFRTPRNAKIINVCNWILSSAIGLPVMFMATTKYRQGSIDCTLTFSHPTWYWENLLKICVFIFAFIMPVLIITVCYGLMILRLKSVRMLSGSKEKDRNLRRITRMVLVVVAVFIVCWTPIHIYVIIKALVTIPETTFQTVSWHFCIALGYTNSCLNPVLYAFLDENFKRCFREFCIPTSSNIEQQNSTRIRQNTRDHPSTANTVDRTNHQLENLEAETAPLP", "experiment": "Antagonist activity at MOR", "assay_type": "functional"}, "Carbonic anhydrase 2": {"molecular_target": "Carbonic anhydrase 2 (Homo sapiens, UniProt P00918)", "experiment": "Inhibition of human CA2"}, "Mus musculus": {"tested_on": "Mus musculus", "experiment": "Anticonvulsant activity in mouse at 30 mg/kg", "assay_type": "functional"}, "HCT-116": {"tested_on": "HCT-116", "experiment": "Antitumor activity against human HCT116 cells xenografted in athymic mouse assessed as reduction tumor size at 20 mg/kg, qd", "assay_type": "functional", "design": "scale not given: the % may be the effect or the level left"}, "[5]": {"experiment": "Solubility in water", "assay_type": "physicochemical"}, "Staphylococcus aureus": {"tested_on": "Staphylococcus aureus", "experiment": "Antimicrobial activity against methicillin-resistant Staphylococcus aureus", "assay_type": "functional"}, "Enterococcus faecium": {"tested_on": "Enterococcus faecium", "experiment": "Antimicrobial activity against vancomycin-resistant Enterococcus faecium", "assay_type": "functional"}, "[6]": {"experiment": "Drug elimination in po dosed human assessed as unchanged compound level", "assay_type": "ADME, organism-based", "details": "in vivo, read-out: Drug excretion"}, "[7]": {"experiment": "Ratio of drug level in liver to blood in human", "assay_type": "ADME, tissue-based"}, "[8]": {"experiment": "Inhibition of globotriaosyl ceramide binding to Escherichia coli Verotoxin 1"}, "[9]": {"tested_on": "T1, Lysosomal acid glucosylceramidase (Homo sapiens), P04062 [N409S]", "T1 sequence (whole entry)": "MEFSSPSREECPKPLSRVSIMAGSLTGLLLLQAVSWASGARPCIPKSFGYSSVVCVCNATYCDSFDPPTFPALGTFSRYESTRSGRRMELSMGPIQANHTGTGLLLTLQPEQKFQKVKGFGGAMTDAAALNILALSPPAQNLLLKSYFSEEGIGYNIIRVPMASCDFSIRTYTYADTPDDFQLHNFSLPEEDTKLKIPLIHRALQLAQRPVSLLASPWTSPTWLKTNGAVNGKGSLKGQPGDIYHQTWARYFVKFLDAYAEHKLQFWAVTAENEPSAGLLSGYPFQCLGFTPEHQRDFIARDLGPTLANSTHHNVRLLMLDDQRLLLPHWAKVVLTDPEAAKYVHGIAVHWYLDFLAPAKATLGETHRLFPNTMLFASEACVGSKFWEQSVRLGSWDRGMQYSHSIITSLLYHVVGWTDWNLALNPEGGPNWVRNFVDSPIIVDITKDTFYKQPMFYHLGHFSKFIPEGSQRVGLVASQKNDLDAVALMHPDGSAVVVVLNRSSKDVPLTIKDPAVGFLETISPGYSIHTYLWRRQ", "experiment": "Inhibition of Beta-glucocerebrosidase N370S mutant in cell based assay"}, "[10]": {"experiment": "Inhibition of Beta-glucocerebrosidase G202R mutant in cell based assay"}, "[11]": {"experiment": "Displacement of [125I]neurotensin from neurotensin receptor 1 in guinea pig brain", "design": "species or system Cavia porcellus"}, "[12]": {"experiment": "Half life in human plasma", "assay_type": "ADME, cell-free"}, "[13]": {"molecular_target": "T2, Mediator of RNA polymerase II transcription subunit 23 (Homo sapiens, UniProt Q9ULK4)", "T2 sequence (Q9ULK4 whole entry)": "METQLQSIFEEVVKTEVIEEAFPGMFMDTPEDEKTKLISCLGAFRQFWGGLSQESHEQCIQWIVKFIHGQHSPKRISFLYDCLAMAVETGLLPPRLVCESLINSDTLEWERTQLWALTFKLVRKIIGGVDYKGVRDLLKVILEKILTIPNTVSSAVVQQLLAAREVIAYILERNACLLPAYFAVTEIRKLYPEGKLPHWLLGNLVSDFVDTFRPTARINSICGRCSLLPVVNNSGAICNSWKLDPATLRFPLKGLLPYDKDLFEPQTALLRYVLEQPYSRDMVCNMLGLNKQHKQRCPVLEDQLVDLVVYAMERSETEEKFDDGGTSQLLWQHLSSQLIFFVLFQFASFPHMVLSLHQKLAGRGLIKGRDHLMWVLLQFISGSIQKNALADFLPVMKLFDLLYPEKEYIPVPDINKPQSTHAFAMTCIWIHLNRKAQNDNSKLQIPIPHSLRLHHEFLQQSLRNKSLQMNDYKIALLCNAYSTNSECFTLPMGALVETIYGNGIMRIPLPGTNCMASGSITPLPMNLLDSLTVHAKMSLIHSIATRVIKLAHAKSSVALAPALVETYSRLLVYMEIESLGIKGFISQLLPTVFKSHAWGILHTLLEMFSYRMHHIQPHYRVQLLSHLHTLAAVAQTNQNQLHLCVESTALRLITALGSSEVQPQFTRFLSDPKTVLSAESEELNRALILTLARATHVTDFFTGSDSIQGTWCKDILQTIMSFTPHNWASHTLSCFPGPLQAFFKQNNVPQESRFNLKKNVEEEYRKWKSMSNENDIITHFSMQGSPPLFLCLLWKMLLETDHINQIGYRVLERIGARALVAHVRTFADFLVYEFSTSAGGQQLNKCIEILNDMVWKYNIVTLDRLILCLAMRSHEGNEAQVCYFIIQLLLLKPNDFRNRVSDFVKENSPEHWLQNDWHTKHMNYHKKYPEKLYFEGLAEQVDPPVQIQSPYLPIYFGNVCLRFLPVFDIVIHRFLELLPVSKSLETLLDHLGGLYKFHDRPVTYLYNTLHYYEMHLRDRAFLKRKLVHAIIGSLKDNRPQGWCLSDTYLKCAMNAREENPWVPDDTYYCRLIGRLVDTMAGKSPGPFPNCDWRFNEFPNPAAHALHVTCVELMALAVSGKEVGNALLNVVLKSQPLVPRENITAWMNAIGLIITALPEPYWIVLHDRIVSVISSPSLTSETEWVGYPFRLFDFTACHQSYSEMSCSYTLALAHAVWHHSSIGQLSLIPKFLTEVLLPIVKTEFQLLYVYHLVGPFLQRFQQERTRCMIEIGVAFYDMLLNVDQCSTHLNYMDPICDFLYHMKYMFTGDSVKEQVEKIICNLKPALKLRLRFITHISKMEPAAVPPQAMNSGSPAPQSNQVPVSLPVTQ", "experiment": "Binding affinity to Sur2"}, "Vitamin D3 receptor": {"molecular_target": "T3, Vitamin D3 receptor (Homo sapiens, UniProt P11473)", "T3 sequence (P11473 whole entry)": "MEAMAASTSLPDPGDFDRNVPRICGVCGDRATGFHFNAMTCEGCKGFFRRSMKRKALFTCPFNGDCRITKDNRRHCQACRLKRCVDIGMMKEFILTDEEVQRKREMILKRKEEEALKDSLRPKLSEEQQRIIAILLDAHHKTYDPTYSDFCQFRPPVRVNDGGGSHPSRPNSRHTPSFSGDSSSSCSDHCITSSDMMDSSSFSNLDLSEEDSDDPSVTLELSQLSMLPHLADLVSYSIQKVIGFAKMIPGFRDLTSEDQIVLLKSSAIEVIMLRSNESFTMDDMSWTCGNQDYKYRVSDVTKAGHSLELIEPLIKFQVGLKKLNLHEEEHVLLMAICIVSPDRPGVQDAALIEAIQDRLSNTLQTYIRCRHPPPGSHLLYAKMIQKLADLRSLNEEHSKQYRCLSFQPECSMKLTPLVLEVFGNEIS", "experiment": "Transactivation of VDR expressed in COS7 cells assessed as reduction in 1,25-dihydroxyvitamin D3-induced transcriptional activity by transient transcription assay", "assay_type": "cell-based, COS-7"}, "[14]": {"experiment": "Drug excretion in human urine assessed as unchanged compound level", "assay_type": "ADME", "details": "read-out: Drug excretion"}, "[15]": {"experiment": "Protein binding in plasma", "assay_type": "ADME, cell-free", "details": "read-out: PPB (converted)"}}}
{"smiles": "CC(C)=CCC/C(C)=C/CNCCNC1C2CC3CC(C2)CC1C3", "note": "(stereo not drawn) [SQ109]", "values": [{"measurement": "Vd", "setting": "[1]", "value": 11.8, "unit": "L/kg"}, {"measurement": "MIC", "setting": "[2]", "value": 1.56, "unit": "µM"}]}
{"smiles": "CC(C)NCC(O)COc1ccc(CC(=O)OCCC23CC4CC(CC(C4)C2)C3)cc1", "note": "(stereo not drawn) [ADAPROLOL]", "values": [{"measurement": "half-life", "setting": "[3]", "value": 6.9, "unit": "min"}]}
{"smiles": "Cc1cc(O)cc(C)c1C[C@H](N)C(=O)N1Cc2ccccc2C[C@H]1C(=O)NC12C[C@H]3C[C@@H](C1)C[C@@H](C2)C3", "values": [{"measurement": "Ki", "setting": "[4]", "value": 1.24, "unit": "nM"}, {"measurement": "Ki", "setting": "Mu-type opioid receptor", "value": 85.5, "unit": "nM"}]}
{"smiles": "NS(=O)(=O)c1nnc(NC(=O)NC23CC4CC(CC(C4)C2)C3)s1", "values": [{"measurement": "Ki", "setting": "Carbonic anhydrase 2", "value": 13, "unit": "nM"}, {"measurement": "Activity", "setting": "Mus musculus", "value": 47, "unit": "%"}]}
{"smiles": "COC(=O)c1ccc(O)c(NC(=O)COc2ccc(C34CC5CC(CC(C5)C3)C4)cc2)c1", "values": [{"measurement": "Activity", "setting": "HCT-116", "value": 53, "unit": "%"}]}
{"smiles": "O=C(O)CCCCCCCCCCCNC(=O)NC12CC3CC(CC(C3)C1)C2", "values": [{"measurement": "solubility", "setting": "[5]", "value": 19, "unit": "µg/mL"}]}
{"smiles": "CC12C[C@@]34C=CC(=O)[C@@](C)(CCC(=O)Nc5c(O)ccc(C(=O)O)c5O)C3[C@H](CC1C4)O2", "note": "(stereo partly drawn) [PLATENSIMYCIN]", "values": [{"measurement": "MIC", "setting": "Staphylococcus aureus", "value": 0.2, "unit": "µg/mL"}, {"measurement": "MIC", "setting": "Enterococcus faecium", "value": 0.2, "unit": "µg/mL"}]}
{"smiles": "NS(=O)(=O)c1nnc(NC(=O)OC23CC4CC(CC(C4)C2)C3)s1", "values": [{"measurement": "Ki", "setting": "Carbonic anhydrase 2", "value": 10, "unit": "nM"}, {"measurement": "Activity", "setting": "Mus musculus", "value": 92, "unit": "%"}]}
{"smiles": "CN(C)CCOCC(=O)NC12CC3CC(CC(C3)C1)C2", "note": "[TROMANTADINE]", "values": [{"measurement": "dose excreted", "setting": "[6]", "value": 30, "unit": "%"}, {"measurement": "Kp", "setting": "[7]", "value": 19}]}
{"smiles": "CCCCCCCCCCCCC/C=C/C(O)C(CO[C@@H]1O[C@H](CO)[C@@H](O[C@@H]2O[C@H](CO)[C@H](O[C@H]3O[C@H](CO)[C@H](O)[C@H](O)[C@H]3O)[C@H](O)[C@H]2O)[C@H](O)[C@H]1O)NC(=O)CC12CC3CC(CC(C3)C1)C2", "note": "(stereo partly drawn)", "values": [{"measurement": "IC50", "setting": "[8]", "value": 10000, "unit": "nM"}]}
{"smiles": "O=C(CCCCCN1C[C@H](O)[C@@H](O)[C@H](O)[C@H]1CO)NC12CC3CC(CC(C3)C1)C2", "values": [{"measurement": "INH", "setting": "[9]", "value": "> 1", "unit": "µM"}, {"measurement": "INH", "setting": "[10]", "value": "> 1", "unit": "µM"}]}
{"smiles": "COc1cccc(OC)c1-c1cc(C(=O)NC2(C(=O)O)C3CC4CC(C3)CC2C4)nn1-c1ccnc2cc(Cl)ccc12", "note": "(stereo not drawn) [REMINERTANT]", "values": [{"measurement": "IC50", "setting": "[11]", "value": 0.99, "unit": "nM"}]}
{"smiles": "CC(N)C12CC3CC(CC(C3)C1)C2", "note": "(stereo not drawn) [RIMANTADINE]", "values": [{"measurement": "half-life", "setting": "[12]", "value": 1440, "unit": "min"}]}
{"smiles": "C[C@@]1(CCC(=O)Nc2c(O)ccc(C(=O)O)c2O)C(=O)C=CC23CC4CC(CC(C4)C21)C3", "note": "(stereo partly drawn)", "values": [{"measurement": "MIC", "setting": "Staphylococcus aureus", "value": 1.3, "unit": "µg/mL"}, {"measurement": "MIC", "setting": "Enterococcus faecium", "value": 1.3, "unit": "µg/mL"}]}
{"smiles": "Cc1ccc(S(=O)(=O)n2ccc3c(OCC(O)CN(CCCCCN)C(=O)N4CCC(C5CCN(C(=O)C67CC8CC(CC(C8)C6)C7)CC5)CC4)cccc32)cc1", "note": "(stereo not drawn) [WRENCHNOLOL]", "values": [{"measurement": "Kd", "setting": "[13]", "value": 1800, "unit": "nM"}]}
{"smiles": "C=C1[C@H](O)CC(=C/C=C2\\CCC[C@]3(C)[C@@H]([C@H](C)/C=C/C[C@H](O)CC45CC6CC(CC(C6)C4)C5)CC[C@@H]23)C[C@H]1O", "values": [{"measurement": "IC50", "setting": "Vitamin D3 receptor", "value": 3, "unit": "nM"}]}
{"smiles": "CC(=O)N(O)CCCCCNC(=O)CCC(=O)N(O)CCCCCNC(=O)CCC(=O)N(O)CCCCCN", "note": "[DEFEROXAMINE]", "values": [{"measurement": "half-life", "setting": "[3]", "value": 5, "unit": "min"}]}
{"smiles": "NS(=O)(=O)c1nnc(NC(=O)CC23CC4CC(CC(C4)C2)C3)s1", "values": [{"measurement": "Activity", "setting": "Mus musculus", "value": 75, "unit": "%"}]}
{"smiles": "NC12CC3CC(CC(C3)C1)C2", "note": "[AMANTADINE]", "values": [{"measurement": "dose excreted", "setting": "[14]", "value": 65, "unit": "%"}]}
{"smiles": "N#C[C@@H]1C[C@@H]2C[C@@H]2N1C(=O)[C@@H](N)C12CC3CC(CC(O)(C3)C1)C2", "note": "[SAXAGLIPTIN ANHYDROUS]", "values": [{"measurement": "fraction unbound", "setting": "[15]", "value": 0.7}]}
